Assay results reported in BindingDB's records for doi:10.1021/jm00108a040 (Eli Lilly, 1991).

Tests used:
[1] = target: Gastrin/cholecystokinin type B receptor (Cavia porcellus); assay: Inhibition of [125I]-labeled CCK-8 sulfate binding to Cholecystokinin type B receptor in guinea pig brain membranes
[2] = target: Gastrin/cholecystokinin type B receptor (Cavia porcellus); assay: as above; remark: listed apart in the source

SMILES: CCc1cccc(-n2c(CCc3c[nH]c4ccc(Br)cc34)nc3ccccc3c2=O)c1
- IC50 [1]: 330 nM
- IC50 [2]: 330 nM
